Laboratory results as given in article PMC10672269, “Evaluation of Carbonic Anhydrase, Acetylcholinesterase, Butyrylcholinesterase, and α-Glycosidase Inhibition Effects and Antioxidant Activity of Baicalin Hydrate” (Life, 2023).
Where “and” joins values, the source holds several entries; their conditions need not be identical. Equal entries are not always repeated. Where two headings read alike, the source gives them in different places.

Legend:
DMPD radical scavenging = assay: DMPD radical scavenging
Experimental: Baicalin hydrate was evaluated for its capacity to remove DMPD^•+ using the Fogliano technique. For this purpose, 0.5 mL of FeCl3 (50 mM) and 1.5 mL of DMPD solution were added to the buffer solution (pH 5.3, 0.1 M). Then, this mixture was added to 1 mL of different concentrations (10–30 μg/mL) of baicalin hydrate. Then, the total volume was adjusted to 4 mL using deionized water. Finally, 1 mL of DMPD radicals were added, and their absorbances were recorded at 505 nm.
(§1) The IC50 values were determined using plots of activity (%) versus baicalin hydrate. Ki values and other inhibition factors were determined using Lineweaver–Burk graphs.

[1] = Cu2+ reducing ability (cupric ions reducing); settings: at 30 μg/mL
Experimental: The technique of Apak et al. was utilized to assess the cupric ions (Cu^2+) reducing capacity of baicalin hydrate. After carrying out the required experimental procedures, the absorbances were detected at 450 nm using a spectrophotometer (Shimadzu, UV-1280, Kyoto, Japan). To do so, 0.2 mL CuCl2 solution (10 mM), 200 µL neocuproine solution (7.5 mM), and 200 µL CH3COONa buffer solution (1.0 M) were added to a test tube. The solution was mixed with different concentrations of baicalin hydrate (10–30 μg/mL). The total volume then reduced to 1.5 mL by adding distilled water and stored at room temperature. After 30 min incubation, the absorbances of the samples were measured at 450 nm. The increased absorbance of the reaction reflects increased reduction capacity.

[2] = Fe3+ reducing ability (potassium ferricyanide reduction); settings: at 30 μg/mL
Experimental: According to prior investigation, baicalin hydrate’s ability to reduce Fe^3+ was achieved. Also, according to previous works, the Fe^3+-reducing effect of baicalin hydrate was tested. Briefly, 0.75 mL of deionized water and different doses of baicalin hydrate (10–30 μg/mL) were combined with 1.25 mL sodium phosphate buffer (pH 6.6, 0.2 M) and 1.25 mL of K3[Fe(CN)6] (1%). After 30 min incubation at 30 °C, the reaction medium was acidified with 1 mL trichloroacetic acid (10%, TCA) and re-incubated in the dark for 30 min. Finally, 0.5 mL of FeCl3 (0.1%) was transferred to the solution. The absorbance values of baicalin hydrate and references were recorded at 700 nm. The increased absorbance of the reaction mixture reflects an increasing reduction ability.

DPPH radical scavenging = assay: DPPH radical scavenging
Experimental: The Blois technique was used to test the DPPH^• scavenging capacity of baicalin hydrate. Briefly, 0.25 mL of different concentrations of baicalin hydrate in ethanol (10–30 μg/mL) and 0.25 mL of DPPH radical solution (0.3 mM) in ethanol were combined with 1 mL ethanol in test tubes. The mixture was then incubated at 37 °C for 30 min. The DPPH radical scavenging activities of baicalin hydrate were measured at 517 nm.
as §1

ABTS radical scavenging = assay: ABTS radical scavenging
Experimental: ABTS^•+ scavenging capacity of baicalin hydrate was measured according to a different work and was detected at 734 nm. ABTS^•+ was produced by the reaction of 2 mM ABTS in water with 2.45 mM potassium persulfate (K2S2O8), incubated in the dark at room temperature for five hours. Before usage, the ABTS^•+ solution was diluted to obtain an absorbance of 0.750 ± 0.025 at 734 nm with phosphate buffer (0.1 M, pH 7.4). Then, 1 mL of ABTS^•+ solution was added to 3 mL of baicalin hydrate in ethanol at different concentrations (10–30 µg/mL).
as §1

[3] = cited from earlier work; for median inhibitory concentration (IC50): DPPH tests in a different investigation; for DPPH radical scavenging IC50: previous reports
[4] = set-up: method as in PMID 31832335, PMID 16243424, PMID 36297576, doi:10.1016/j.fbio.2022.101557, PMID 37693735; settings: other existing studies; cited from earlier work
[5] = set-up: method as in PMID 31832335, PMID 16243424, PMID 24980540, PMID 36297576, doi:10.1016/j.arabjc.2009.12.008; settings: at similar concentration; cited from earlier work
[6] = cited from earlier work
AChE = settings: cited from earlier work; for Ki: read-out: Ki towards AChE
[7] = set-up: method as in PMID 31832335, PMID 36144638, PMID 37693735, PMID 21554120, PMID 36297576; settings: at the same concentration; cited from earlier work

With `COc1ccc(O)c(C(C)(C)C)c1` [BHA, butylated hydroxyanisole] the “DMPD•+ scavenging IC50” value (DMPD radical scavenging) was 11.99 µg/mL, the “Cu^2+ reducing, absorbance λ (450 nm)” value [1] was 2.216 ± 0.059 and 2.216 and the “Fe^3+ reducing, absorbance λ (700 nm)” value [2] was 2.347 ± 0.046 and 2.347. For the same compound, the “DPPH• scavenging IC50” value (DPPH radical scavenging) was 10.10 µg/mL and the “ABTS•+ scavenging IC50” value (ABTS radical scavenging) was 5.07 µg/mL.
With `Cc1cc(C(C)(C)C)c(O)c(C(C)(C)C)c1` [BHT, butylated hydroxytoluene] the “DMPD•+ scavenging IC50” value (DMPD radical scavenging) was 8.72 µg/mL, the “Cu^2+ reducing, absorbance λ (450 nm)” value [1] was 2.044 ± 0.041 and 2.044 and the “Fe^3+ reducing, absorbance λ (700 nm)” value [2] was 0.952 ± 0.023 and 0.952. For the same compound, the “DPPH• scavenging IC50” value (DPPH radical scavenging) was 25.95 µg/mL, the “ABTS•+ scavenging IC50” value (ABTS radical scavenging) was 6.99 µg/mL and the “median inhibitory concentration (IC50)” value [3] was 21.7 µg/mL.
For `O=C(/C=C/c1ccc(O)c(O)c1)OCCc1ccccc1` [CAPE, caffeic acid phenethyl ester], the “DMPD•+ scavenging IC50” value [4] is listed as 26.70 µg/mL, the “Fe^3+ reducing absorbance” value [5] is listed as 2.509 and the “ABTS•+ scavenging IC50” value [6] is listed as 9.80 µg/mL. The “DPPH radical scavenging IC50” value [3] was 3.30 µg/mL.
In the case of `Cc1c(C)c2c(c(C)c1O)CCC(C)(C(=O)O)O2` (stereo not drawn) [Trolox], the “DMPD•+ scavenging IC50” value (DMPD radical scavenging) is reported as 4.33 µg/mL, the “Cu^2+ reducing, absorbance λ (450 nm)” value [1] is reported as 1.548 ± 0.024 and 1.548 and the “Fe^3+ reducing, absorbance λ (700 nm)” value [2] is reported as 2.119 ± 0.001 and 2.119. The “DPPH• scavenging IC50” value (DPPH radical scavenging) was 7.059 µg/mL and the “ABTS•+ scavenging IC50” value (ABTS radical scavenging) was 6.16 µg/mL.
For `O=C1O[C@H]([C@@H](O)CO)C(O)=C1O` [ascorbic acid, reference compound], the “median inhibitory concentration (IC50)” value [3] is given as 19.6 µg/mL.
In the case of `O=C(O)[C@H]1O[C@@H](Oc2cc3oc(-c4ccccc4)cc(=O)c3c(O)c2O)[C@H](O)[C@@H](O)[C@@H]1O` [baicalin], the IC50 (AChE; a different study, read-out: 50% inhibition of AChE activity (IC50)) is given as 124 µM and the IC50 ([3]; read-out: DPPH radical IC50) is given as 64.9 µM.
For `O=C(O)/C=C/c1ccc(O)c(O)c1` [caffeic acid], the “Fe^3+ reducing absorbance” value [5] is given as 2.769.
In the case of `O=c1oc2cc(O)ccc2c2oc3cc(O)ccc3c12` [coumestrol], the “DMPD•+ scavenging IC50” value [4] is listed as 12.81 µg/mL, the “Fe^3+ reducing absorbance” value [5] is listed as 0.739 and the “ABTS•+ scavenging IC50” value [6] is listed as 12.24 µg/mL. For the same compound, the Ki (AChE) was 21.4 nM, the “Cu^2+ reduction absorbance” value [7] was 0.780 and the “DPPH radical scavenging IC50” value [3] was 25.95 µg/mL.
For `C=CCc1ccc(O)c(OC)c1` [eugenol], the “DMPD•+ scavenging IC50” value [4] is given as 10.04 µg/mL, the “ABTS•+ scavenging IC50” value [6] is given as 7.84 µg/mL and the “Cu^2+ reduction absorbance” value [7] is given as 0.762. The “DPPH radical scavenging IC50” value [3] was 16.06 µg/mL.
For `COc1ccc2c(c1O)-c1c(O)c(OC)cc3c1[C@H](C2)[N+](C)(C)CC3` [magnofluorine], the “DMPD•+ scavenging IC50” value [4] is given as 15.16 µg/mL, the “Fe^3+ reducing absorbance” value [5] is given as 0.967 and the “ABTS•+ scavenging IC50” value [6] is given as 27.61 µg/mL. The “Cu^2+ reduction absorbance” value [7] was 0.468 and the “DPPH radical scavenging IC50” value [3] was 10.58 µg/mL.
In the case of `CCCCCc1cc(O)cc(O)c1` [olivetol], the “DMPD•+ scavenging IC50” value [4] is given as 19.25 µg/mL, the “ABTS•+ scavenging IC50” value [6] is given as 1.94 µg/mL and the “Cu^2+ reduction absorbance” value [7] is given as 1.314. The “DPPH radical scavenging IC50” value [3] was 17.77 µg/mL.
For `O=c1c(O)c(-c2ccc(O[C@@H]3O[C@H](CO)[C@@H](O)[C@H](O)[C@H]3O)c(O)c2)oc2cc(O)cc(O)c12` [spiraeoside], the “DMPD•+ scavenging IC50” value [4] is given as 8.15 µg/mL, the “Fe^3+ reducing absorbance” value [5] is given as 1.012 and the “ABTS•+ scavenging IC50” value [6] is given as 7.48 µg/mL. The Ki (AChE) was 3.4 nM, the “Cu^2+ reduction absorbance” value [7] was 0.519 and the “DPPH radical scavenging IC50” value [3] was 28.51 µg/mL.
For `O=C1c2c(O)cc(O)cc2OC(c2ccc(O)c(O)c2)C1O` (stereo not drawn) [taxifolin], the “DMPD•+ scavenging IC50” value [4] is given as 173.25 µg/mL, the “ABTS•+ scavenging IC50” value [6] is given as 0.83 µg/mL and the Ki (AChE) is given as 16.7 nM. The “Cu^2+ reduction absorbance” value [7] was 0.750 and the “DPPH radical scavenging IC50” value [3] was 77.00 µg/mL.
In the case of `O=c1[nH]c(=O)c2[nH]c(=O)[nH]c2[nH]1` [uric acid], the “Fe^3+ reducing absorbance” value [5] is given as 0.432.
For `CC(=O)c1c(O)c(C)c(O)c2c1OC1=CC(=O)C(C(C)=O)C(=O)C12C` (stereo not drawn) [usnic acid], the “DMPD•+ scavenging IC50” value [4] is listed as 33.00 µg/mL, the “Fe^3+ reducing absorbance” value [5] is listed as 0.278 and the ABTS•+ scavenging IC50 [6] is listed as 10.4 µg/mL. The “Cu^2+ reduction absorbance” value [7] was 0.277 and the “DPPH radical scavenging IC50” value [3] was 49.50 µg/mL.
In the case of `Cc1c(C)c2c(c(C)c1O)CC[C@@](C)(CCC[C@H](C)CCC[C@H](C)CCCC(C)C)O2` [α-Tocopherol], the “DMPD•+ scavenging IC50” value (DMPD radical scavenging) is reported as 7.11 µg/mL, the “Cu^2+ reducing, absorbance λ (450 nm)” value [1] is reported as 0.816 ± 0.041 and 0.816 and the “Fe^3+ reducing, absorbance λ (700 nm)” value [2] is reported as 0.957 ± 0.018 and 0.957. The “DPPH• scavenging IC50” value (DPPH radical scavenging) was 11.31 µg/mL and the “ABTS•+ scavenging IC50” value (ABTS radical scavenging) was 8.37 µg/mL.
In the case of L-Adrenaline [reference compound], the “DMPD•+ scavenging IC50” value [4] is listed as 15.6 µg/mL, the “ABTS•+ scavenging IC50” value [6] is listed as 6.93 µg/mL and the “DPPH radical scavenging IC50” value [3] is listed as 30.6 µg/mL.
In the case of tannic acid, the “Fe^3+ reducing absorbance” value [5] is listed as 2.428.
